We go through two molecules from patent US10967167B2, “Using alternating electric fields to increase permeability of the blood brain barrier” (priority 2018, dated 2021).

Data set [1] relates to rat brain (BBB). In words: Evans Blue accumulation in rat brain after alternating electric fields. The data set is classed as in vivo. An excerpt:
A set of in vivo experiments on rats was also run to quantify the increase in vessel permeability caused by exposure to the alternating electric fields. These experiments used Evans Blue (EB) dye, which is an azo dye that has a very high affinity for serum albumin (molecule size ˜69 kDa). Because of its large molecule size, serum albumin will ordinarily not be able to get past the BBB.
This was accomplished by shaving each rat's head, positioning a first pair of capacitively coupled electrodes on the top and bottom of the rat's head, and positioning a second pair of capacitively coupled electrodes on the left and right sides of the rat's head. A 100 kHz AC voltage was then applied between the top and bottom electrodes for 1 second, followed by a 100 kHz AC voltage applied between the right and left electrodes for 1 second, in a repeating sequence.
Under the conditions indicated in Table 1 and for the times indicated on Table 1, EB was injected intravenously into the tail vein under anesthesia (Once injected, EB immediately binds to Albumin), and the EB was allowed to circulate for 2 hours in all cases. The following steps were then performed: (a) intracardiac perfusion with saline; (b) brains are sliced in four pieces with a brain slicer; (c) pieces were photographed to localize staining and weighted; (d) EB extraction after tissue homogenization with TCA 50% (1:3) and centrifuge and (e) EB quantification at 610 nm. Results are given as μg EB per g tissue.
During the experiment, two animals from group 2 and one animal from group 4 were excluded (disrupted treatment, failure to inject EB into the tail vein). There were no differences between the animals treated with alternating electric fields (groups 1 and 2) and therefore these animals were grouped together. Similarly, there were no differences between sham heat and control animals (groups 3 and 4) and therefore these animals were grouped together.
EB accumulation in these four specific sections was then measured. In addition, a computer simulation was performed to determine the field strength in each of these four sections. […]

The test system of data set [2] is rat brain (BBB). Briefly: Dynamic Contrast Enhanced MRI (DCE-MRI) of rat brain. Type of data set: in vivo. The method, then:
Yet another set of in vivo experiments was performed using Dynamic Contrast Enhanced MRI (DCE-MRI) with intravenous injection of Gadolinium contrast agent (Gd-DTPA, Magnetol, MW 547). In these experiments, test rats were treated with 100 kHz alternating electric fields for 72 h, and control rats were not treated with alternating electric fields for the same period of time. After this 72 h period, the alternating electric field was turned off, the rats were anesthetized, and a series of 60 T1w MRI scans (each of the scans having a duration of 28 seconds) was acquired. The gadolinium contrast agent was injected into the rat's tail vein during the 7th of these 60 scans.
The image analysis for each rat included (1) determining a baseline for each voxel by calculating the mean of the first six T1w MRI scans for each voxel (i.e., the scans prior to the injection of the gadolinium); (2) computing voxel by voxel, the percent signal change (i.e., gadolinium accumulation) over time relative to the baseline; (3) segmenting the brain into anterior, middle, and posterior segments; (4) generating for each of the three segments the mean percent signal change with respect to the baseline over all the voxels in the respective segment and then (5) averaging 4 consecutive time points (i.e. 4 scans) together. Finally, the data from all of the rats within any given group were averaged together. […]

As to `Cc1cc(-c2ccc(/N=N/c3ccc4c(S(=O)(=O)O)cc(S(=O)(=O)O)c(N)c4c3O)c(C)c2)ccc1/N=N/c1ccc2c(S(=O)(=O)O)cc(S(=O)(=O)O)c(N)c2c1O` [EB, Evans Blue], the “average EB accumulation in the rat brain, averaged over all four sections 1-4” value with rat brain (BBB) [1] (100 kHz fields 72 h vs control, p<0.05) is “higher accumulation”. In the data set with rat brain (BBB) [1] (100 kHz fields 72 h vs sham heat/control, EB i.v., 2 h circulation, highest field strength), the “EB accumulation in brain sections 1, 2 (frontal cerebrum)” value is recorded as “statistically significant increase”. The “EB accumulation in posterior brain sections (3, 4)” value in the data set on rat brain (BBB) [1] (100 kHz fields 72 h vs sham heat/control, EB i.v., 2 h circulation, lower field strength) is reported as “smaller increase (that was not statistically significant)”.
For `O=C([O-])CN(CCN(CC(=O)[O-])CC(=O)O)CCN(CC(=O)[O-])CC(=O)O.[Gd+3]` [contrast agent, Gd-DTPA], the “contrast agent accumulation in the brain tissue (percent signal change)” value in the data set on rat brain (BBB) [2] (100 kHz fields 72 h (n=6) vs control rats (n=3), i.v.) is on record as “significantly higher”; in the data set with rat brain (BBB) [2] (100 kHz fields 72 h followed by 96 hours without fields (n=7) vs control+96 h (n=3)) it was “not significantly different”.
